Experimental data from article PMC9596378, “Discovery and molecular basis of subtype-selective cyclophilin inhibitors” (Nature Chemical Biology, 2022).

Key:
Test in all cases: Anisotropy (fluorescence polarization) binding assay
[1] = molecular target: CypD (Homo sapiens, UniProt P30405); parameters: PPIF (UniProtKB Entry P30405: residues 45–207); made in house; host or cells: E. coli BL21(DE3); details: 0.5 nM fluorescein-labeled macrocycle
Protocol: (§1) Final assay volume was 100 µL with 0.25% DMSO. Fluorescence anisotropy was then measured using a Tecan Spark plate reader using 492 nm/523 nm excitation/emission settings.

[2] = molecular target: T1, NKTR (Homo sapiens, UniProt P30414); details: 0.5 nM fluorescein-labeled macrocycle
T1 construct: NKTR (UniProtKB Entry P30414: residues 7–179); host or cells: E. coli BL21(DE3)
T1 sequence (P30414 7-179): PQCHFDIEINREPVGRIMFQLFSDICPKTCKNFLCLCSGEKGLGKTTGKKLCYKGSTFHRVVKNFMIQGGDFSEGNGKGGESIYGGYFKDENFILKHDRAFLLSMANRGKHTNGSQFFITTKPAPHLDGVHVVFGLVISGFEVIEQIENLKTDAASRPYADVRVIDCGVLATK
Protocol: as §1

[3] = molecular target: T2, CypE K212A (Homo sapiens, UniProt Q9UNP9, K212A); details: 0.5 nM A26-Fl
T2 construct: Lane 4- GS-CypE K212A (131-301);; His6 tag with thrombin site (pET28a LIC); GS remnant stays on the N-terminus (N, cleaved yes); host or cells: E. coli BL21(DE3)
Protocol: as §1

[4] = molecular target: T3, PPWD1 (Homo sapiens, UniProt Q96BP3); details: 0.5 nM fluorescein-labeled macrocycle
T3 construct: PPWD1 (UniProtKB Entry Q96BP3: residues 473–646); host or cells: E. coli BL21(DE3)
T3 sequence (Q96BP3 473-646): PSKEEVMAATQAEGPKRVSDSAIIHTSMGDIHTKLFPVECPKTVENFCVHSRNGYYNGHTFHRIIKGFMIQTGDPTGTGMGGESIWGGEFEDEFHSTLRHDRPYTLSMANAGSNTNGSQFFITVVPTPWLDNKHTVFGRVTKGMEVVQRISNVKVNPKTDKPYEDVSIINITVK
Protocol: as §1

[5] = molecular target: T4, CypC (Homo sapiens, UniProt P45877); details: 0.5 nM fluorescein-labeled macrocycle
T4 construct: PPIC (UniProtKB Entry P45877: residues 24–212); host or cells: E. coli BL21(DE3)
Protocol: as §1

[6] = molecular target: T5, CypE (Homo sapiens, UniProt Q9UNP9); details: 0.5 nM fluorescein-labeled macrocycle
T5 construct: PPIE (UniProtKB Entry Q9UNP9: residues 131–301); host or cells: E. coli BL21(DE3)
Protocol: as §1

[7] = molecular target: T6, PPIL6(C-Myc/DDK) (Homo sapiens, UniProt Q8IXY8); details: 0.5 nM fluorescein-labeled macrocycle
T6 construct: Myc; DDK (FLAG); purchased Millipore-Sigma
Protocol: as §1

[8] = molecular target: T7, PPIL1 (Homo sapiens, UniProt Q9Y3C6); details: 0.5 nM fluorescein-labeled macrocycle
T7 construct: PPIL1 (UniProtKB Entry Q9Y3C6: residues 1–166); made in house; host or cells: E. coli BL21(DE3)
T7 sequence (Q9Y3C6 1-166): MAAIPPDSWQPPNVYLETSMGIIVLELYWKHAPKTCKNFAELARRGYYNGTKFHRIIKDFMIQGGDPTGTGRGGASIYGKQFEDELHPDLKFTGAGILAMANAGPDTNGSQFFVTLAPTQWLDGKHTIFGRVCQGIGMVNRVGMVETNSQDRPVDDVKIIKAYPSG
Protocol: as §1

[9] = molecular target: T8, CypA (Homo sapiens, UniProt P62937); details: 0.5 nM fluorescein-labeled macrocycle
T8 construct: PPIA (UniProtKB Entry P62937: residues 1–165); made in house; host or cells: E. coli BL21(DE3)
Protocol: as §1

[10] = molecular target: T9, PPIL3 (Homo sapiens, UniProt Q9H2H8); details: 0.5 nM fluorescein-labeled macrocycle
T9 construct: PPIL3 (UniProtKB Entry Q9H2H8: residues 1–161); His6 tag with TEV site (2BT vector); SNA remnant stays on the N-terminus (N, cleaved yes); made in house; host or cells: E. coli BL21(DE3)
Protocol: as §1

[11] = molecular target: T10, CypH (Homo sapiens, UniProt O43447); details: 0.5 nM fluorescein-labeled macrocycle
T10 construct: PPIH (UniProtKB Entry O43447: residues 1–177); His6 with TEV site (2BT vector leader) (N); made in house; host or cells: E. coli BL21(DE3)
Protocol: as §1

[12] = molecular target: T11, PPIL2 (Homo sapiens, UniProt Q13356); details: 0.5 nM fluorescein-labeled macrocycle
T11 construct: PPIL2 (UniProtKB Entry Q13356: residues 280–457); His6 tag with thrombin site (pET28a LIC); GS remnant after cleavage (N, cleaved yes); host or cells: E. coli BL21(DE3)
Protocol: as §1

[13] = molecular target: T12, CypE K218A (Homo sapiens, UniProt Q9UNP9, K218A); details: 0.5 nM A26-Fl
T12 construct: Lane 6- GS-CypE K218A (131-301);; His6 tag with thrombin site (pET28a LIC); GS remnant stays on the N-terminus (N, cleaved yes); host or cells: E. coli BL21(DE3)
Protocol: as §1

[14] = molecular target: T13, CypE K217A (Homo sapiens, UniProt Q9UNP9, K217A); details: 0.5 nM A26-Fl
T13 construct: Lane 5- GS-CypE K217A (131-301);; His6 tag with thrombin site (pET28a LIC); GS remnant stays on the N-terminus (N, cleaved yes); host or cells: E. coli BL21(DE3)
Protocol: as §1

[15] = molecular target: T14, SDCCAG-10(GST) (Homo sapiens, UniProt Q6UX04); details: 0.5 nM fluorescein-labeled macrocycle
T14 construct: GST; purchased Abnova
Protocol: as §1

[16] = molecular target: T15, CypB (Homo sapiens, UniProt P23284); details: 0.5 nM fluorescein-labeled macrocycle
T15 construct: PPIB (UniProtKB Entry P23284: residues 34–216); His6 with TEV site (2BT vector leader) (N); made in house; host or cells: E. coli BL21(DE3)
Protocol: as §1

[17] = molecular target: T16, CypG (Homo sapiens, UniProt Q13427); details: 0.5 nM fluorescein-labeled macrocycle
T16 construct: PPIG (UniProtKB Entry Q13427: residues 1–179); His6 with thrombin site (pET28a LIC leader) (N); host or cells: E. coli BL21(DE3)
T16 sequence (Q13427 1-179): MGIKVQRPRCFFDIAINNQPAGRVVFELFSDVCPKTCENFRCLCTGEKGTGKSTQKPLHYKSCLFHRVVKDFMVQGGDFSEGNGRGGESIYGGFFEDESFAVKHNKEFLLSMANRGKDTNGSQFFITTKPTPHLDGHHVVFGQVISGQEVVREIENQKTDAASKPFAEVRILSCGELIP
Protocol: as §1

[18] = molecular target: T17, PPIL4(Full Length) (Homo sapiens, UniProt Q8WUA2); details: 0.5 nM fluorescein-labeled macrocycle
T17 construct: PPIL4 (full length); purchased Millipore-Sigma
Protocol: as §1

[19] = molecular target: Cyp40 (Homo sapiens, UniProt Q08752); parameters: PPID (UniProtKB Entry Q08752: residues 1–183); made in house; host or cells: E. coli BL21(DE3); details: 0.5 nM fluorescein-labeled macrocycle
Protocol: as §1

T15 sequence (P23284 34-216): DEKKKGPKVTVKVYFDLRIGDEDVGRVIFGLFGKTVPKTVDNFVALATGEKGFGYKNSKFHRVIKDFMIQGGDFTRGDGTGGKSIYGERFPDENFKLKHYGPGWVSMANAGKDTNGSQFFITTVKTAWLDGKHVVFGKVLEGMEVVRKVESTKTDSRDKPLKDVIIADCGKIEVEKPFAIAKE
T4 sequence (P45877 24-212): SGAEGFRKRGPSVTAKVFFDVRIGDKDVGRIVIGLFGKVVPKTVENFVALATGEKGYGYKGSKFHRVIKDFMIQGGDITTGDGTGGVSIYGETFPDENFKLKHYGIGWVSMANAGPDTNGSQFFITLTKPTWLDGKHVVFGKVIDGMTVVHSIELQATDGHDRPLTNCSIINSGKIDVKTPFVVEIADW
T17 sequence (Q8WUA2 whole entry): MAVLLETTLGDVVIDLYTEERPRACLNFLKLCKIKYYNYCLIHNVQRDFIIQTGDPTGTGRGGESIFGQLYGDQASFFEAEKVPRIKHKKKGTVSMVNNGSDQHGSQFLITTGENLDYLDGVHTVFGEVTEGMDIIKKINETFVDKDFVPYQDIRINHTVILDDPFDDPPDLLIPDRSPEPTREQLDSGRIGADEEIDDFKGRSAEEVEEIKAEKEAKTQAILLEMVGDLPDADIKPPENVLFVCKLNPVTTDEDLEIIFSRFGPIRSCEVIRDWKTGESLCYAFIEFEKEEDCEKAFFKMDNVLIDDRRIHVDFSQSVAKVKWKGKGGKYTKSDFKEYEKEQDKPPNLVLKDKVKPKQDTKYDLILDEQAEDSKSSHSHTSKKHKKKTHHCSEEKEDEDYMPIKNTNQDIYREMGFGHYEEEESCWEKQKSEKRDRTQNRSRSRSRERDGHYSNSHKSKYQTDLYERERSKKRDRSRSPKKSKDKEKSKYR
T14 sequence (Q6UX04 whole entry): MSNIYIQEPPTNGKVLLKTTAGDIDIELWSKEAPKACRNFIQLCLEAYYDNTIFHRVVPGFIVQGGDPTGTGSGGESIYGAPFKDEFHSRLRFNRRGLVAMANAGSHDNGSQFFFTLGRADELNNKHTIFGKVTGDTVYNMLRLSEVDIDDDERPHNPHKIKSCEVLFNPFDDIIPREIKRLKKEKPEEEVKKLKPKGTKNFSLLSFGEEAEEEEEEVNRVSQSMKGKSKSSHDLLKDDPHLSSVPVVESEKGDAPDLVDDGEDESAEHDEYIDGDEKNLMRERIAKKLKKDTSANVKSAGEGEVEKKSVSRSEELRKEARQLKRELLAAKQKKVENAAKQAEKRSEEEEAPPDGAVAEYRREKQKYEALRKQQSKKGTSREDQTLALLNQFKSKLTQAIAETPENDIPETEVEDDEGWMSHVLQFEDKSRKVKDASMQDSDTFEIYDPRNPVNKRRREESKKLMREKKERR
T8 sequence (P62937 whole entry, the tested form may be a part): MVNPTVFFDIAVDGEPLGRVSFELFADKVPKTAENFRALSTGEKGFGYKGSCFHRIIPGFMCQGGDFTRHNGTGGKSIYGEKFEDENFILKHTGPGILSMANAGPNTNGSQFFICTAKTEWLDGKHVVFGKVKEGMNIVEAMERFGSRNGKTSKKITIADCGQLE
CypD, sequence (P30405 45-207): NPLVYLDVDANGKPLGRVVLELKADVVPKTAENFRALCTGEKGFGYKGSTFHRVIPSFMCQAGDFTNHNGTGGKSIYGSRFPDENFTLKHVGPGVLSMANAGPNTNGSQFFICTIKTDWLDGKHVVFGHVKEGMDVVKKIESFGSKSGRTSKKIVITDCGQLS
T9 sequence (Q9H2H8 whole entry, the tested form may be a part): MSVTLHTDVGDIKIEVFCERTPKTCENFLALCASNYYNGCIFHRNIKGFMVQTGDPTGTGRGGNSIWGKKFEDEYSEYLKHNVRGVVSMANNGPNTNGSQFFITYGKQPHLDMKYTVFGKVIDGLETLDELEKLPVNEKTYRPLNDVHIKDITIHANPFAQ
T10 sequence (O43447 whole entry, the tested form may be a part): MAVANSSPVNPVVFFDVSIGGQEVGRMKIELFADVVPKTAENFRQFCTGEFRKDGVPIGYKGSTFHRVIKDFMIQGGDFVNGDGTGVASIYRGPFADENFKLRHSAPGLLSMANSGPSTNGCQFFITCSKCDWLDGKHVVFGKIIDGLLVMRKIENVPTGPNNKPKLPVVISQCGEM
T5 sequence (Q9UNP9 131-301): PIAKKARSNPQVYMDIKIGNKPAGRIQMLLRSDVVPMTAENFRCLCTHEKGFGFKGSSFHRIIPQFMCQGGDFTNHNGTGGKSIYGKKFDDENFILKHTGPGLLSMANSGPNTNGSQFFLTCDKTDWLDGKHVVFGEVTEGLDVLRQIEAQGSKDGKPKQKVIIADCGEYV
T2 sequence (Q9UNP9 131-301 K212A): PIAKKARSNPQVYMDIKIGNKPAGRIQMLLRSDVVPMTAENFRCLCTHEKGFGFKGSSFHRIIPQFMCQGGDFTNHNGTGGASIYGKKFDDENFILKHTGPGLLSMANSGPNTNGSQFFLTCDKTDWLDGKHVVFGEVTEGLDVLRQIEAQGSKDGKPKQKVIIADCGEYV
T13 sequence (Q9UNP9 131-301 K217A): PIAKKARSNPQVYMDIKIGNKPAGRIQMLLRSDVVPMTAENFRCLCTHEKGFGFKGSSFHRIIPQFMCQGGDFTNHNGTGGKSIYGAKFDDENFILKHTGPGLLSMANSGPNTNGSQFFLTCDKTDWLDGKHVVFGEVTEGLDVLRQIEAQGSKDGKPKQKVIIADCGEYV
T11 sequence (Q13356 280-457): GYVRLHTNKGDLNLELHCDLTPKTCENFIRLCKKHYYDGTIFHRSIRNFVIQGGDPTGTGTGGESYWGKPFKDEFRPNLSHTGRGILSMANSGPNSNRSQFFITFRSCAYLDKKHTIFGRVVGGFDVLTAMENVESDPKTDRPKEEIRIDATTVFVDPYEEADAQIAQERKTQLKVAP
T6 sequence (Q8IXY8 whole entry): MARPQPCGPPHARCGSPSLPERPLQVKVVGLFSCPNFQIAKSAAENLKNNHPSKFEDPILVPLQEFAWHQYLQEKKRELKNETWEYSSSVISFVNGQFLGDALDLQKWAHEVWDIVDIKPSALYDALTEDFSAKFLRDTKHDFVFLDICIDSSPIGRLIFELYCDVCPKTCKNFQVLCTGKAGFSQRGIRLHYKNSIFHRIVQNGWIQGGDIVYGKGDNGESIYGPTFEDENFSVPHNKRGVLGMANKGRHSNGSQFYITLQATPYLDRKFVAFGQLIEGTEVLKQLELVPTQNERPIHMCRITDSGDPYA
T12 sequence (Q9UNP9 131-301 K218A): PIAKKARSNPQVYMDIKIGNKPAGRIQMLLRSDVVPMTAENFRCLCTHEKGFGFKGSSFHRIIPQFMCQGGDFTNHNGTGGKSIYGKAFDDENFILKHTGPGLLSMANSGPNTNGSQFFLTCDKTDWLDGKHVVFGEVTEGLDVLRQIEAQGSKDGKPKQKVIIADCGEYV
Cyp40, sequence (Q08752 1-183): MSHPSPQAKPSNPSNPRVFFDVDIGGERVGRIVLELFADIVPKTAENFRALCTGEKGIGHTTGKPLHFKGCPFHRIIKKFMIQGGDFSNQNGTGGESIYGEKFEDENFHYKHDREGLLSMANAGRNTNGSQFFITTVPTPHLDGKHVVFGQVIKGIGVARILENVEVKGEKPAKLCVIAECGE

## O=C1/C=C/C(=O)N2CCC[C@](Cc3ccccc3)(C2)C(=O)N[C@@H](Cc2ccco2)C(=O)NCc2ccccc2CC(=O)N[C@H](C(=O)NCCCOCCOCCOCCCNC(=O)c2ccc3c(c2)C(=O)OC32c3ccc(O)cc3Oc3cc(O)ccc32)CCN1 [Compound A26-Fl]
[1]
  Kd: 17 ± 2 nM
[2]
  Kd: 1500 ± 400 nM
[3]
  Kd: 130 ± 30 nM
[4]
  Kd: 1100 ± 600 nM
[5]
  Kd: 150 ± 30 nM
[6]
  Kd: 100 ± 30 nM
[7]
  Kd: > 1000 nM
[8]
  Kd: 230 ± 40 nM
[9]
  Kd: 51 ± 0.7 nM
[10]
  Kd: 1700 ± 600 nM
[11]
  Kd: 600 ± 100 nM
[12]
  Kd: > 10 µM
[13]
  Kd: 70 ± 20 nM
[14]
  Kd: 70 ± 10 nM
[15]
  Kd: > 1000 nM
[16]
  Kd: 34 ± 5 nM
[17]
  Kd: 170 ± 10 nM
[18]
  Kd: > 1000 nM
[19]
  Kd: 170 ± 20 nM
